In PubChem BioAssay AID180 (DTP/NCI, 2004):
“And” between values parts separate entries of the source, which are not always exact repeats. Identical values can stand only once.

Tested on: BDF1 mice, Adenocarcinoma 755 s.c., tumor weight T/C
Experiment: NCI In Vivo Anticancer Drug Screen. Data for tumor model Adenocarcinoma 755 (subcutaneous) in B6D2F1 (BDF1) mice
Conditions: endpoint: mean tumor weight, schedule: Q01DX011 (ip), higher = larger tumour
Summary of the method: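 Transplantable tumor implanted; mice dosed with compound or vehicle; survival or tumor size recorded; ratio of treated to vehicle control reported.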

[1] = dose: 1.0 mg/kg/injection, vehicle: methylcellulose (MC)
[2] = dose: 1.5 mg/kg/injection, vehicle: methylcellulose (MC)
[3] = dose: 2.0 mg/kg/injection, vehicle: methylcellulose (MC)
[4] = dose: 4.0 mg/kg/injection, vehicle: methylcellulose (MC)
[5] = dose: 8.0 mg/kg/injection, vehicle: methylcellulose (MC)

## NC(Cc1ccc(N(CCCl)CCCl)cc1)C(=O)O (stereo not drawn)
dose: 0.32 mg/kg/injection, vehicle: carboxymethylcellulose (CMC)
  T/C: 58 % of control
dose: 0.62 mg/kg/injection, vehicle: carboxymethylcellulose (CMC)
  T/C: 87 % of control and 66 % of control
dose: 0.64 mg/kg/injection, vehicle: carboxymethylcellulose (CMC)
  T/C: 32 % of control
dose: 0.83 mg/kg/injection, vehicle: carboxymethylcellulose (CMC)
  T/C: 46 % of control
[1]
  T/C: 82 % of control
dose: 1.28 mg/kg/injection, vehicle: carboxymethylcellulose (CMC)
  T/C: 23 % of control
dose: 1.38 mg/kg/injection, vehicle: carboxymethylcellulose (CMC)
  T/C: 20 % of control
[2]
  T/C: 26 % of control
dose: 1.67 mg/kg/injection, vehicle: carboxymethylcellulose (CMC)
  T/C: 39 % of control
dose: 1.73 mg/kg/injection, vehicle: carboxymethylcellulose (CMC)
  T/C: 19 % of control
[3]
  T/C: 30 % of control
dose: 2.3 mg/kg/injection, vehicle: carboxymethylcellulose (CMC)
  T/C: 23 % of control
dose: 2.56 mg/kg/injection, vehicle: carboxymethylcellulose (CMC)
  T/C: 9 % of control
dose: 3.0 mg/kg/injection, vehicle: methylcellulose (MC)
  T/C: 14 % of control
dose: 3.35 mg/kg/injection, vehicle: carboxymethylcellulose (CMC)
  T/C: 9 % of control
dose: 3.45 mg/kg/injection, vehicle: carboxymethylcellulose (CMC)
  T/C: 12 % of control
[4]
  T/C: 12 % of control
dose: 5.0 mg/kg/injection, vehicle: carboxymethylcellulose (CMC)
  T/C: 11 % of control and 30 % of control
dose: 6.0 mg/kg/injection, vehicle: methylcellulose (MC)
  T/C: 5 % of control
dose: 6.25 mg/kg/injection, vehicle: methylcellulose (MC)
  T/C: 5 % of control
dose: 6.7 mg/kg/injection, vehicle: carboxymethylcellulose (CMC)
  T/C: 4 % of control
dose: 6.9 mg/kg/injection, vehicle: carboxymethylcellulose (CMC)
  T/C: 8 % of control
[5]
  T/C: 6 % of control
dose: 10.0 mg/kg/injection, vehicle: carboxymethylcellulose (CMC)
  T/C: 4 % of control

## O=C1C=CC(=O)O1 (tested in a mixture with another compound)
dose: 11.0 mg/kg/injection, vehicle: carboxymethylcellulose (CMC)
  T/C: 39 % of control and 57 % of control
dose: 11.0 mg/kg/injection, vehicle: saline
  T/C: 56 % of control
dose: 22.0 mg/kg/injection, vehicle: carboxymethylcellulose (CMC)
  T/C: 18 % of control and 38 % of control
dose: 22.0 mg/kg/injection, vehicle: saline
  T/C: 31 % of control
dose: 90.0 mg/kg/injection, vehicle: carboxymethylcellulose (CMC)
  T/C: 11 % of control and 32 % of control

## NNC(=O)CCC(N)C(=O)O (stereo not drawn)
dose: 10.21 mg/kg/injection, vehicle: carboxymethylcellulose (CMC)
  T/C: 121 % of control
dose: 13.0 mg/kg/injection, vehicle: carboxymethylcellulose (CMC)
  T/C: 91 % of control
dose: 20.42 mg/kg/injection, vehicle: carboxymethylcellulose (CMC)
  T/C: 96 % of control
dose: 26.0 mg/kg/injection, vehicle: carboxymethylcellulose (CMC)
  T/C: 60 % of control
dose: 40.85 mg/kg/injection, vehicle: carboxymethylcellulose (CMC)
  T/C: 151 % of control
dose: 43.05 mg/kg/injection, vehicle: carboxymethylcellulose (CMC)
  T/C: 97 % of control
dose: 52.0 mg/kg/injection, vehicle: carboxymethylcellulose (CMC)
  T/C: 70 % of control
dose: 81.7 mg/kg/injection, vehicle: carboxymethylcellulose (CMC)
  T/C: 67 % of control
dose: 86.1 mg/kg/injection, vehicle: carboxymethylcellulose (CMC)
  T/C: 98 % of control
dose: 104.0 mg/kg/injection, vehicle: carboxymethylcellulose (CMC)
  T/C: 56 % of control

## O=C(O)/C=C\C(=O)Nc1nccs1
dose: 25.0 mg/kg/injection, vehicle: carboxymethylcellulose (CMC)
  T/C: 80 % of control

## NC(CS)C(=O)O (stereo not drawn) (tested in a mixture with another compound)
dose: 150.0 mg/kg/injection, vehicle: methylcellulose (MC)
  T/C: 42 % of control
dose: 150.0 mg/kg/injection, vehicle: saline
  T/C: 56 % of control and 61 % of control
dose: 225.0 mg/kg/injection, vehicle: methylcellulose (MC)
  T/C: 31 % of control
dose: 225.0 mg/kg/injection, vehicle: saline
  T/C: 18 % of control
dose: 275.0 mg/kg/injection, vehicle: saline
  T/C: 55 % of control
dose: 350.0 mg/kg/injection, vehicle: methylcellulose (MC)
  T/C: 18 % of control
dose: 350.0 mg/kg/injection, vehicle: saline
  T/C: 35 % of control and 48 % of control
dose: 500.0 mg/kg/injection, vehicle: methylcellulose (MC)
  T/C: 19 % of control

## O[C@H](CN1CC1)[C@@H](O)CN1CC1
dose: 0.19 mg/kg/injection, vehicle: methylcellulose (MC)
  T/C: 50 % of control
dose: 0.38 mg/kg/injection, vehicle: methylcellulose (MC)
  T/C: 47 % of control
dose: 0.75 mg/kg/injection, vehicle: methylcellulose (MC)
  T/C: 13 % of control
[2]
  T/C: 8 % of control

## CCCCCSc1nc(N)nc2nc[nH]c12
dose: 0.04 mg/kg/injection, vehicle: alkali diluted with saline
  T/C: 114 % of control
dose: 0.08 mg/kg/injection, vehicle: alkali diluted with saline
  T/C: 119 % of control
dose: 0.16 mg/kg/injection, vehicle: alkali diluted with saline
  T/C: 95 % of control
dose: 0.32 mg/kg/injection, vehicle: alkali diluted with saline
  T/C: 80 % of control
dose: 0.63 mg/kg/injection, vehicle: alkali diluted with saline
  T/C: 112 % of control
dose: 1.25 mg/kg/injection, vehicle: alkali diluted with saline
  T/C: 97 % of control
dose: 1.5 mg/kg/injection, vehicle: saline
  T/C: 79 % of control
dose: 2.5 mg/kg/injection, vehicle: alkali diluted with saline
  T/C: 85 % of control
dose: 3.1 mg/kg/injection, vehicle: saline
  T/C: 100 % of control
dose: 5.0 mg/kg/injection, vehicle: alkali diluted with saline
  T/C: 106 % of control
dose: 6.25 mg/kg/injection, vehicle: saline
  T/C: 83 % of control
dose: 10.0 mg/kg/injection, vehicle: alkali diluted with saline
  T/C: 82 % of control
dose: 12.5 mg/kg/injection, vehicle: saline
  T/C: 43 % of control
dose: 25.0 mg/kg/injection, vehicle: saline
  T/C: 47 % of control
dose: 50.0 mg/kg/injection, vehicle: saline
  T/C: 7 % of control
dose: 100.0 mg/kg/injection, vehicle: saline
  T/C: 3 % of control

## O=P(N1CCCCCC1)(N1CC1)N1CC1
[1]
  T/C: 95 % of control
[3]
  T/C: 68 % of control
[4]
  T/C: 48 % of control
[5]
  T/C: 28 % of control

## S=c1nc[nH]c2nc[nH]c12.[Cd]
dose: 0.4 mg/kg/injection, vehicle: saline
  T/C: 38 % of control
